Results as given in patent US7759331B2, “Pyridine-containing macroheterococylic compounds as kinase inhibitors” (Janssen Pharmaceutica NV, priority 2006, dated 2010).

Legend:
Experiment in all cases: Protein kinase selectivity panel
Assay type in all cases: biochemical
Conditions in all cases: 1.0 μM compound, 10 μM ATP
CK1δ(h) = CK1δ(h) (Homo sapiens, UniProt P48730)
Method: (§1) Protein kinase selectivity assays were performed as described in the scientific literature (Davies, S. P., et al., Biochem. J. 2000, 351, 95-105). Briefly, protein kinases were assayed for their ability to phosphorylate the appropriate peptide/protein substrates in the presence of 1.0 μM compound. Assays were done using 10 μM ATP and were linear with respect to time. The protein kinase selectivity assays were performed by Upstate Cell Signaling Solutions using Upstate's KinaseProfiler™ Selectivity Screening Service.

PAK2(h) = PAK2(h) (Homo sapiens, UniProt Q13177)
Chain of PAK2(h) (Q13177 whole entry): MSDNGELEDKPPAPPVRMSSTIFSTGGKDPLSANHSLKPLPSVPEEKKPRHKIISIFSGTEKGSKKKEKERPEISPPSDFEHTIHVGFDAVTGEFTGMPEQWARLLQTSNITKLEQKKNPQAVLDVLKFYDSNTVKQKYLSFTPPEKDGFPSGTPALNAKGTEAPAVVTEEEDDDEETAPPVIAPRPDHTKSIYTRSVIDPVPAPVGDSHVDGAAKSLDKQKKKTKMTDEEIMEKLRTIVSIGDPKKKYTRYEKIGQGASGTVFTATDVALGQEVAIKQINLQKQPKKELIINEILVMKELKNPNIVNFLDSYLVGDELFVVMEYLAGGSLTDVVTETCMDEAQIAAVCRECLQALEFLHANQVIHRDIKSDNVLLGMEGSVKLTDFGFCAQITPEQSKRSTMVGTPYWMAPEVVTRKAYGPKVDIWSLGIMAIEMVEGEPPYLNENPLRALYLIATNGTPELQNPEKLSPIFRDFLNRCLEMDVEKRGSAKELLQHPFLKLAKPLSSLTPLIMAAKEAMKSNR
Method: as §1

MKK6(h) = target: T1, MKK6(h) (Homo sapiens, UniProt P52564)
T1 sequence (P52564 1-334): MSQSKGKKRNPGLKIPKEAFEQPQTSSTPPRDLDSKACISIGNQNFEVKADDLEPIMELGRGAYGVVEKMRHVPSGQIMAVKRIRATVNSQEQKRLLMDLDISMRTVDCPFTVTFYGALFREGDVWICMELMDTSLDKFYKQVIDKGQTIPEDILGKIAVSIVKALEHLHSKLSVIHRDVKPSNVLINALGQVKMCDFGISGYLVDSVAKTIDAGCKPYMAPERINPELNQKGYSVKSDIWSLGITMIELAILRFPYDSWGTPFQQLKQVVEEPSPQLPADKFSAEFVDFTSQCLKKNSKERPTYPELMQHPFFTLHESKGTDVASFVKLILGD
Method: as §1

MAPK1(h) = MAPK1(h) (Homo sapiens, UniProt P27361)
Method: as §1

Rsk3(h) = Rsk3(h) (Homo sapiens, UniProt Q15349)
Method: as §1

ROCK-II(r) = ROCK-II(r) (Rattus norvegicus, UniProt Q62868)
Chain of ROCK-II(r) (Q62868 whole entry): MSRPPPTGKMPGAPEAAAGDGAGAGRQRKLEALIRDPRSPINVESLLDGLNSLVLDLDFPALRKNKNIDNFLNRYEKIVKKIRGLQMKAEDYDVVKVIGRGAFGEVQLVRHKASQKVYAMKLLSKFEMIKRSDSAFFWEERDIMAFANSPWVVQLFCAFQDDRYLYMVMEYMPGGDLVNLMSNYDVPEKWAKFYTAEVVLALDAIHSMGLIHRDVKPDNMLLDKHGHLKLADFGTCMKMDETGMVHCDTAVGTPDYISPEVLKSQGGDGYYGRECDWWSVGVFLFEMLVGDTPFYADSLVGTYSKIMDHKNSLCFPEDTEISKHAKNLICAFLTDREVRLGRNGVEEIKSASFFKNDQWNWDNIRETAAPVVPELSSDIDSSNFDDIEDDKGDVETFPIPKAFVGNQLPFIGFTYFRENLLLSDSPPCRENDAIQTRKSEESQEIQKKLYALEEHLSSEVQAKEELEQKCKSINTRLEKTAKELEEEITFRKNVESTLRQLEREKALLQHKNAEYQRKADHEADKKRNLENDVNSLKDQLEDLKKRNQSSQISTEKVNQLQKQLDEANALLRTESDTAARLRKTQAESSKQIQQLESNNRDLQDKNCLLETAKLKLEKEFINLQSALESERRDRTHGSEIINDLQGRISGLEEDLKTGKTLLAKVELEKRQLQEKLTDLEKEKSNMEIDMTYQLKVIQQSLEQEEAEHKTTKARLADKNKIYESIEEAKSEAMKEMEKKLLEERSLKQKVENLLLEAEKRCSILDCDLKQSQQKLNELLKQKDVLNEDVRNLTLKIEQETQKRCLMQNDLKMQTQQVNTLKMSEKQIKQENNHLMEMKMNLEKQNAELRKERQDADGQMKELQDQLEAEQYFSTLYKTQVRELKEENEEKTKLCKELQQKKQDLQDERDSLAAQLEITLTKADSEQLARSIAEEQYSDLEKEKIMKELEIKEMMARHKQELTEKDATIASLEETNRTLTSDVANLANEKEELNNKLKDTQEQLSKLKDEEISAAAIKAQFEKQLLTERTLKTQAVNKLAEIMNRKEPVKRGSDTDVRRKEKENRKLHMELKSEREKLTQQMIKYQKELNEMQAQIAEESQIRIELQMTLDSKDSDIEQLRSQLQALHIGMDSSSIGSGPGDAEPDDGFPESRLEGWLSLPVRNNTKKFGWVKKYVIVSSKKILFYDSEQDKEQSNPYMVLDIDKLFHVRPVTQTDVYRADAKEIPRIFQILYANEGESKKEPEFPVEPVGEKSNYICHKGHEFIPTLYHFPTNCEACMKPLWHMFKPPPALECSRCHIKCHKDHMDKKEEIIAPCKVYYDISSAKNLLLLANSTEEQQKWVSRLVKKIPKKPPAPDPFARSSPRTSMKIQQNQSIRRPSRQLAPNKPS
Method: as §1

MAPK2(m) = MAPK2(m) (Mus musculus, UniProt P63085)
Chain of MAPK2(m) (P63085 whole entry): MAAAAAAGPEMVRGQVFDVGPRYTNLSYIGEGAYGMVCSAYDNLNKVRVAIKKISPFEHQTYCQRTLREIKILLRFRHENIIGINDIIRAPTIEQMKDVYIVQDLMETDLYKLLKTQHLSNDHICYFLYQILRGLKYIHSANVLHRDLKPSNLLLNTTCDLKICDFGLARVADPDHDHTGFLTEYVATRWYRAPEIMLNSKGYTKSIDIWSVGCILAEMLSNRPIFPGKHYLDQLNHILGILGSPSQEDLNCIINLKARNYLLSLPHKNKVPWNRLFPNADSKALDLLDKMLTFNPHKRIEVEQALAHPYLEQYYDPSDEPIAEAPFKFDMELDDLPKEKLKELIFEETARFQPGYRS
Method: as §1

PKCβII(h) = PKCβII(h) (Homo sapiens, UniProt P05771)
Chain of PKCβII(h) (P05771 1-673 isoform P05771-2): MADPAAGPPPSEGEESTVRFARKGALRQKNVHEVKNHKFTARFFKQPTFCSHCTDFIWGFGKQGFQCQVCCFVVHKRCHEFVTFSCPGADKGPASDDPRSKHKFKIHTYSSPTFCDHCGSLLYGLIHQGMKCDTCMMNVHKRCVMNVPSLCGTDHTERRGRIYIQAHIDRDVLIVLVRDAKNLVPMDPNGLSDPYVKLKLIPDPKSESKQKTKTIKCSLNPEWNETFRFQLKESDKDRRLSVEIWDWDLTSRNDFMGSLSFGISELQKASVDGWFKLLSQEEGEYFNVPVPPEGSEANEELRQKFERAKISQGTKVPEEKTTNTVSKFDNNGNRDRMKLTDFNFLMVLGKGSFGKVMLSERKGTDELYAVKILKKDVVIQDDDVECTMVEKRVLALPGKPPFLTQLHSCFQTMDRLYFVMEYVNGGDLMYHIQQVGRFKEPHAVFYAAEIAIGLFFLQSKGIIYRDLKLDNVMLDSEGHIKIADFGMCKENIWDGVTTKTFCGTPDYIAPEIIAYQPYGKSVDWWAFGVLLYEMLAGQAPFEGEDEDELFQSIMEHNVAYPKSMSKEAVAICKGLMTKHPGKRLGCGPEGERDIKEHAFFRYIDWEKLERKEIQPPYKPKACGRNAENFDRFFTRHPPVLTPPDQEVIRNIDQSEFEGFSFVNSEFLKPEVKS
Method: as §1

Axl(h) = target: T2, Axl(h) (Homo sapiens, UniProt P30530)
T2 sequence (P30530 26-894): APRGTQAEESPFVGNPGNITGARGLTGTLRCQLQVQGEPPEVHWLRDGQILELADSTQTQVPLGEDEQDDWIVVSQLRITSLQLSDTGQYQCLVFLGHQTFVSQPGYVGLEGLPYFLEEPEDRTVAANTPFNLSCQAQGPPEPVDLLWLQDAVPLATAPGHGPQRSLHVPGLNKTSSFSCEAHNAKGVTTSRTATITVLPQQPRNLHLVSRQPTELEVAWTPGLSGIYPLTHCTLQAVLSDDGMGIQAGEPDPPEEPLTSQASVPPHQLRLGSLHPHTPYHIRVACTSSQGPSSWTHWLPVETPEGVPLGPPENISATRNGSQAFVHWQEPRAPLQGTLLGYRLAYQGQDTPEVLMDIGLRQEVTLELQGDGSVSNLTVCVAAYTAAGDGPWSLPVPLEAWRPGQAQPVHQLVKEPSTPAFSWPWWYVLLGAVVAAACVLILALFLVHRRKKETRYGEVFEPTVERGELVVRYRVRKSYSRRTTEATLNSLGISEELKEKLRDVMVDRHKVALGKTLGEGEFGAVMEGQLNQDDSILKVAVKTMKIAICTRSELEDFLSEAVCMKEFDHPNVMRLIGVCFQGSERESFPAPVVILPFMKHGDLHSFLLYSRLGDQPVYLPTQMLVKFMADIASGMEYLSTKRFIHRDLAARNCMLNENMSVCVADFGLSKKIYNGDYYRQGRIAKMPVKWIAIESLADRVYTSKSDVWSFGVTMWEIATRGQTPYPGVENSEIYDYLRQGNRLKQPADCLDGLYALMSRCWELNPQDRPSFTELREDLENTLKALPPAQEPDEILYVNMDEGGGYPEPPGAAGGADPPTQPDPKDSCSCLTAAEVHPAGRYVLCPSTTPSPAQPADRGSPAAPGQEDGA
Method: as §1

c-RAF(h) = c-RAF(h) (Homo sapiens, UniProt P04049)
Chain of c-RAF(h) (P04049 whole entry): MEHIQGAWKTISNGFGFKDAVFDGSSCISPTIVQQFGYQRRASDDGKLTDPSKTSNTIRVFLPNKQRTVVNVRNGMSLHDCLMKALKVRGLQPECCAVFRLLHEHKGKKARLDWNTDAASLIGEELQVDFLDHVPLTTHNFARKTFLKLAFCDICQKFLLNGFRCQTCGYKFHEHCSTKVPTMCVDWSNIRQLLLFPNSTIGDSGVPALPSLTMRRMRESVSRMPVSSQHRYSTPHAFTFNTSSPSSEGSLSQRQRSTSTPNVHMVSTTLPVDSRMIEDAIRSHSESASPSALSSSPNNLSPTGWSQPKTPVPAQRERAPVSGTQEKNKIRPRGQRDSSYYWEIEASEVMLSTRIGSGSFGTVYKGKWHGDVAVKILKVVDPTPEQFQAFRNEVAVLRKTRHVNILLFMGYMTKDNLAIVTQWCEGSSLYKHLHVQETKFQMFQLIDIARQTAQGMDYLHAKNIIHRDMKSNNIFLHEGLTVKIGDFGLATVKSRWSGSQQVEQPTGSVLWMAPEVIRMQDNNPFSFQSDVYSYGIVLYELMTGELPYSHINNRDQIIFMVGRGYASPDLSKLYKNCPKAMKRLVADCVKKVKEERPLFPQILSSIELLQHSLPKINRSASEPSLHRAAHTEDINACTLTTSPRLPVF
Method: as §1

SAPK4(h) = target: T3, SAPK4(h) (Homo sapiens, UniProt O15264)
T3 sequence (O15264 1-365): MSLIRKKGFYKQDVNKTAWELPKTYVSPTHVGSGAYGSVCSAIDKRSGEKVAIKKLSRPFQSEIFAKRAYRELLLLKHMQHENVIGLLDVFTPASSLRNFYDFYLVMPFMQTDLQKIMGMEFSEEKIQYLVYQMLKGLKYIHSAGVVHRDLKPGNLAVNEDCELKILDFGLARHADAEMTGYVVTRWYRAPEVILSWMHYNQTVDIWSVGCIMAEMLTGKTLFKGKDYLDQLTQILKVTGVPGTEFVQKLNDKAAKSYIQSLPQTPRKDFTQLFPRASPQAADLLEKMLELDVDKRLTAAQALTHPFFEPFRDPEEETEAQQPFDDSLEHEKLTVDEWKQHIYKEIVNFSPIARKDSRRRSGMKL
Method: as §1

Arg(m) = Arg(m) (Mus musculus, UniProt Q4JIM5)
Chain of Arg(m) (Q4JIM5 whole entry): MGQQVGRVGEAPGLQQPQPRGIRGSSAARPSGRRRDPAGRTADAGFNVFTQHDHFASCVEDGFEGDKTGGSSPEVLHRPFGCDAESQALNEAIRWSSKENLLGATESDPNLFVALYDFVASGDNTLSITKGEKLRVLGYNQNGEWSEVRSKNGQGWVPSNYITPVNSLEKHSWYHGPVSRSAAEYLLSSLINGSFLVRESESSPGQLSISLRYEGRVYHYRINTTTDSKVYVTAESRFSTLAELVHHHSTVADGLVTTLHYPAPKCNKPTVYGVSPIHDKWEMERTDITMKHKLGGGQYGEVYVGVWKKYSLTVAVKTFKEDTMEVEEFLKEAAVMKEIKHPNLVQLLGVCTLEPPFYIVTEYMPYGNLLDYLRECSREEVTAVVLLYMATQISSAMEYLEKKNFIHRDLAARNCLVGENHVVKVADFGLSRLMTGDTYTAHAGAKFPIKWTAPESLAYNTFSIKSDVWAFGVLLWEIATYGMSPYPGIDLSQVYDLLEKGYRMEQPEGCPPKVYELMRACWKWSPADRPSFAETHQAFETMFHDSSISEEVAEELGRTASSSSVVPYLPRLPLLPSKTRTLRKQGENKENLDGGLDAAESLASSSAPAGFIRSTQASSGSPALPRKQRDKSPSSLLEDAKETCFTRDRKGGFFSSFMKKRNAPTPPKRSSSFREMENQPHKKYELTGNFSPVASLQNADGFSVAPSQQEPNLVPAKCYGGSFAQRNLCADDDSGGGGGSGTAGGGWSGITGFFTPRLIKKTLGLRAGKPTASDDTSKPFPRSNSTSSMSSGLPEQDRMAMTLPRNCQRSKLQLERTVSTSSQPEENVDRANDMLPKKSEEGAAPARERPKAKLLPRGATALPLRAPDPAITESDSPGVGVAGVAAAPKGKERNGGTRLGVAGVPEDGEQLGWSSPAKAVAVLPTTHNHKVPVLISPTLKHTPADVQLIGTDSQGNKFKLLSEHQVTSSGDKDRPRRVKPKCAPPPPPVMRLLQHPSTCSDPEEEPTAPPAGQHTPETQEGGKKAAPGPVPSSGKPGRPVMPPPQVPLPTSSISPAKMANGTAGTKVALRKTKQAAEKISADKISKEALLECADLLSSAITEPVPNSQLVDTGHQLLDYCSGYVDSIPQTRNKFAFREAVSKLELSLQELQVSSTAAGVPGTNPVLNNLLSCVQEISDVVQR
Method: as §1

MKK4(m) = target: T4, MKK4(m) (Mus musculus, UniProt P47809)
T4 sequence (P47809 1-397): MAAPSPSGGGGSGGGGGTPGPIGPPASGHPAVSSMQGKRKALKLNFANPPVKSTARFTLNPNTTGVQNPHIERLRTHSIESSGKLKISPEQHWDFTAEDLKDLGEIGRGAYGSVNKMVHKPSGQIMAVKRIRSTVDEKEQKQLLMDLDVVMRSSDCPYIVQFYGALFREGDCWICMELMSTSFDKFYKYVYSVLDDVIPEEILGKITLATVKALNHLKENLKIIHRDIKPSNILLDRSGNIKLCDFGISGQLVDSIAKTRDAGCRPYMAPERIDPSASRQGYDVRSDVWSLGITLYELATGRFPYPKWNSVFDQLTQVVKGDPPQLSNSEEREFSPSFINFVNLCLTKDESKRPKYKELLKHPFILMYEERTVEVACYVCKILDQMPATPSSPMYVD
Method: as §1

Rsk1(r) = Rsk1(r) (Rattus norvegicus, UniProt Q63531)
Method: as §1

## O=C1NC(=O)C2=C1c1cn(c3ccccc13)CCCc1ccc(c(N3CCCC3)n1)CCCn1cc2c2ccccc21 [Cpd 7, 31-pyrrolidin-1-yl-5,15,25,30-tetraazaheptacyclo[27.2.2.1^5,12.1^18,25.0^6,11.0^13,17.0^19,24]pentatriaconta-1(31),6,8,10,12(35),13(17),18(34),19,21,23,29,32-dodecaene-14,16-dione]
CK1δ(h)
  Activity at Protein Kinase Assays (% of control), CK1δ(h): 109 % of control
PAK2(h)
  Activity at Protein Kinase Assays (% of control), PAK2(h): 102 % of control
MKK6(h)
  Activity at Protein Kinase Assays (% of control), MKK6(h): 85 % of control
MAPK1(h)
  Activity at Protein Kinase Assays (% of control), MAPK1(h): 110 % of control
Rsk3(h)
  Activity at Protein Kinase Assays (% of control), Rsk3(h): 25 % of control
ROCK-II(r)
  Activity at Protein Kinase Assays (% of control), ROCK-II(r): 91 % of control
MAPK2(m)
  Activity at Protein Kinase Assays (% of control), MAPK2(m): 99 % of control
PKCβII(h)
  Activity at Protein Kinase Assays (% of control), PKCβII(h): 77 % of control
Axl(h)
  Activity at Protein Kinase Assays (% of control), Axl(h): 100 % of control
c-RAF(h)
  Activity at Protein Kinase Assays (% of control), c-RAF(h): 85 % of control
SAPK4(h)
  Activity at Protein Kinase Assays (% of control), SAPK4(h): 102 % of control
Arg(m)
  Activity at Protein Kinase Assays (% of control), Arg(m): 130 % of control
MKK4(m)
  Activity at Protein Kinase Assays (% of control), MKK4(m): 113 % of control
Rsk1(r)
  Activity at Protein Kinase Assays (% of control), Rsk1(r): 67 % of control

## CN(C)c1nc2ccc1CCCCn1cc(c3ccccc31)C1=C(C(=O)NC1=O)c1cn(c3ccccc13)CCC2 [Cpd 1, 31-(dimethylamino)-5,15,25,32-tetraazaheptacyclo[28.2.2.1^5,12.1^18,25.0^6,11.0^13,17.0^19,24]hexatriaconta-1(32),6,8,10,12(36),13(17),18(35),19,21,23,30,33-dodecaene-14,16-dione]
CK1δ(h)
  Activity at Protein Kinase Assays (% of control), CK1δ(h): 107 % of control
PAK2(h)
  Activity at Protein Kinase Assays (% of control), PAK2(h): 93 % of control
MKK6(h)
  Activity at Protein Kinase Assays (% of control), MKK6(h): 102 % of control
MAPK1(h)
  Activity at Protein Kinase Assays (% of control), MAPK1(h): 97 % of control
Rsk3(h)
  Activity at Protein Kinase Assays (% of control), Rsk3(h): 33 % of control
ROCK-II(r)
  Activity at Protein Kinase Assays (% of control), ROCK-II(r): 101 % of control
MAPK2(m)
  Activity at Protein Kinase Assays (% of control), MAPK2(m): 95 % of control
PKCβII(h)
  Activity at Protein Kinase Assays (% of control), PKCβII(h): 64 % of control
Axl(h)
  Activity at Protein Kinase Assays (% of control), Axl(h): 97 % of control
c-RAF(h)
  Activity at Protein Kinase Assays (% of control), c-RAF(h): 103 % of control
SAPK4(h)
  Activity at Protein Kinase Assays (% of control), SAPK4(h): 101 % of control
Arg(m)
  Activity at Protein Kinase Assays (% of control), Arg(m): 113 % of control
MKK4(m)
  Activity at Protein Kinase Assays (% of control), MKK4(m): 130 % of control
Rsk1(r)
  Activity at Protein Kinase Assays (% of control), Rsk1(r): 37 % of control

## O=C1NC(=O)C2=C1c1cn(c3ccccc13)CCCc1cc(nc(N3CCCC3)c1)CCCn1cc2c2ccccc21 [Cpd 6, 20-pyrrolidin-1-yl-4,14,19,26-tetraazaheptacyclo[24.6.1.1^7,14.1^18,22.0^2,6.0^8,13.0^27,32]pentatriaconta-1(33),2(6),7(35),8,10,12,18(34),19,21,27,29,31-dodecaene-3,5-dione]
CK1δ(h)
  Activity at Protein Kinase Assays (% of control), CK1δ(h): 112 % of control
PAK2(h)
  Activity at Protein Kinase Assays (% of control), PAK2(h): 100 % of control
MKK6(h)
  Activity at Protein Kinase Assays (% of control), MKK6(h): 91 % of control
MAPK1(h)
  Activity at Protein Kinase Assays (% of control), MAPK1(h): 99 % of control
Rsk3(h)
  Activity at Protein Kinase Assays (% of control), Rsk3(h): 5 % of control
ROCK-II(r)
  Activity at Protein Kinase Assays (% of control), ROCK-II(r): 83 % of control
MAPK2(m)
  Activity at Protein Kinase Assays (% of control), MAPK2(m): 103 % of control
PKCβII(h)
  Activity at Protein Kinase Assays (% of control), PKCβII(h): 74 % of control
Axl(h)
  Activity at Protein Kinase Assays (% of control), Axl(h): 106 % of control
c-RAF(h)
  Activity at Protein Kinase Assays (% of control), c-RAF(h): 92 % of control
SAPK4(h)
  Activity at Protein Kinase Assays (% of control), SAPK4(h): 102 % of control
Arg(m)
  Activity at Protein Kinase Assays (% of control), Arg(m): 121 % of control
MKK4(m)
  Activity at Protein Kinase Assays (% of control), MKK4(m): 119 % of control
Rsk1(r)
  Activity at Protein Kinase Assays (% of control), Rsk1(r): 5 % of control

## CN(C)c1cc2cc(n1)CCCn1cc(c3ccccc31)C1=C(C(=O)NC1=O)c1cn(c3ccccc13)CCC2 [Cpd 2, 20-(dimethylamino)-4,14,19,26-tetraazaheptacyclo[24.6.1.1^7,14.1^18,22.0^2,6.0^8,13.0^27,32]pentatriaconta-1(33),2(6),7(35),8,10,12,18(34),19,21,27,29,31-dodecaene-3,5-dione]
CK1δ(h)
  Activity at Protein Kinase Assays (% of control), CK1δ(h): 111 % of control
PAK2(h)
  Activity at Protein Kinase Assays (% of control), PAK2(h): 103 % of control
MKK6(h)
  Activity at Protein Kinase Assays (% of control), MKK6(h): 86 % of control
MAPK1(h)
  Activity at Protein Kinase Assays (% of control), MAPK1(h): 86 % of control
Rsk3(h)
  Activity at Protein Kinase Assays (% of control), Rsk3(h): 5 % of control
ROCK-II(r)
  Activity at Protein Kinase Assays (% of control), ROCK-II(r): 92 % of control
MAPK2(m)
  Activity at Protein Kinase Assays (% of control), MAPK2(m): 95 % of control
PKCβII(h)
  Activity at Protein Kinase Assays (% of control), PKCβII(h): 68 % of control
Axl(h)
  Activity at Protein Kinase Assays (% of control), Axl(h): 104 % of control
c-RAF(h)
  Activity at Protein Kinase Assays (% of control), c-RAF(h): 87 % of control
SAPK4(h)
  Activity at Protein Kinase Assays (% of control), SAPK4(h): 104 % of control
Arg(m)
  Activity at Protein Kinase Assays (% of control), Arg(m): 129 % of control
MKK4(m)
  Activity at Protein Kinase Assays (% of control), MKK4(m): 119 % of control
Rsk1(r)
  Activity at Protein Kinase Assays (% of control), Rsk1(r): 7 % of control
